# Test results reported in paper PMC12056086 (Nature Communications, 2025).
# How the values were obtained:
# [1] = molecular target: human dopamine transporter (hDAT) (Homo sapiens, UniProt Q01959, G386H)
# [2] = molecular target: human dopamine transporter (hDAT) (Homo sapiens, UniProt Q01959, V152I)
# [3] = molecular target: human dopamine transporter (hDAT) (Homo sapiens, UniProt Q01959, K92A)
# [4] = molecular target: human dopamine transporter (hDAT) (Homo sapiens, UniProt Q01959, K384A)
# [5] = molecular target: human dopamine transporter (hDAT) (Homo sapiens, UniProt Q01959); experiment: cell-based; settings: read-out: single-molecule AFM force spectroscopy on live cells
# human dopamine transporter (hDAT) (Homo sapiens, UniProt Q01959), sequence (Q01959 whole entry): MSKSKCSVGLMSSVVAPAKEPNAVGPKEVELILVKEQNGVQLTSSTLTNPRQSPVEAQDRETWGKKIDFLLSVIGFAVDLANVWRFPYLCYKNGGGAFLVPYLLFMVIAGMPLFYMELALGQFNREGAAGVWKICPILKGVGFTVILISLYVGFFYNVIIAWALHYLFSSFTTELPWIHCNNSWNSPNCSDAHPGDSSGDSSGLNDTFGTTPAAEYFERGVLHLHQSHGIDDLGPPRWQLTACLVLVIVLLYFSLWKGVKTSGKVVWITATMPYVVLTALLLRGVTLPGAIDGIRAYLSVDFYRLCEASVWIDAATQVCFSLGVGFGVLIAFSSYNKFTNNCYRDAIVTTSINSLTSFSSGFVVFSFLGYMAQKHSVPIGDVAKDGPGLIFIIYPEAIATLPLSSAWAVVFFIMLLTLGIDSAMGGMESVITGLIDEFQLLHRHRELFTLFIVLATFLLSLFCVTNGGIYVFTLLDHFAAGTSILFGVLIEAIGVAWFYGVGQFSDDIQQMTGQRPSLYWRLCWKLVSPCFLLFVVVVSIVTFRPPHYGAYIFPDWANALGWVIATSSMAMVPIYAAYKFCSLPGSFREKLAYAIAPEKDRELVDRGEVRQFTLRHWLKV
# human dopamine transporter (hDAT) (Homo sapiens, UniProt Q01959, G386H), sequence (Q01959 whole entry G386H): as the sequence (Q01959 whole entry) above, with G386H counted along it
# human dopamine transporter (hDAT) (Homo sapiens, UniProt Q01959, V152I), sequence (Q01959 whole entry V152I): as the sequence (Q01959 whole entry) above, with V152I counted along it
# human dopamine transporter (hDAT) (Homo sapiens, UniProt Q01959, K92A), sequence (Q01959 whole entry K92A): as the sequence (Q01959 whole entry) above, with K92A counted along it
# human dopamine transporter (hDAT) (Homo sapiens, UniProt Q01959, K384A), sequence (Q01959 whole entry K384A): as the sequence (Q01959 whole entry) above, with K384A counted along it
smiles,measurement,setting,value
NCCc1ccc(O)c(O)c1 [dopamine],single-molecule AFM force spectroscopy on live cells,[1],"dopamine was still able to bind to the S2 site of DAT-G386H, albeit with lower binding strength"
same,single-molecule AFM force spectroscopy on live cells,[2],(V152I) also reduced the population of stronger binding events (d) while the overall binding activity is preserved
same,single-molecule AFM force spectroscopy on live cells,[3],"both K92A and K384A diminished the population of weaker unbinding events, indicating that both lysines are involved in the S2 site"
same,single-molecule AFM force spectroscopy on live cells,[4],"both K92A and K384A diminished the population of weaker unbinding events, indicating that both lysines are involved in the S2 site"
same,koff,[5],0.11 ± 0.03 s⁻¹
